One may read the IC50 as the concentration at which inhibition is half-maximal.

This assay concerns the target human PAD4 (hPAD4) (Homo sapiens, UniProt Q9UM07). The assay is described as follows: RFMS Human PAD4 Functional Assay. The conditions noted are these: 5 nM hPAD4, 250 μM BAEE. The assay is classed as biochemical. The essentials:
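RapidFire ESI-MS quantification, normalised to a modified-citrulline internal standard, after phenyl glyoxal (final 4 mM) derivatisation of the TCA-quenched reaction. The enzyme (10 nM) sat 30 min with compound (up to 50 μM final) before 500 μM BAEE (as added) started a 90 min, 37 °C reaction. Buffer: HEPES pH 7.5, 50 μM calcium, 5 μM TPEN.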

Setting [1] is: hPAD4 RFMS IC50, human PAD4, rapid-fire mass spectrum (RFMS) assay.
The mark [2] stands for this setting: human PAD4, rapid-fire mass spectrum (RFMS) assay, read-out: hPAD4 RFMS IC50.

Like-named read-outs stand apart in the source and are kept apart here.

human PAD4 (hPAD4), sequence (Q9UM07 whole entry): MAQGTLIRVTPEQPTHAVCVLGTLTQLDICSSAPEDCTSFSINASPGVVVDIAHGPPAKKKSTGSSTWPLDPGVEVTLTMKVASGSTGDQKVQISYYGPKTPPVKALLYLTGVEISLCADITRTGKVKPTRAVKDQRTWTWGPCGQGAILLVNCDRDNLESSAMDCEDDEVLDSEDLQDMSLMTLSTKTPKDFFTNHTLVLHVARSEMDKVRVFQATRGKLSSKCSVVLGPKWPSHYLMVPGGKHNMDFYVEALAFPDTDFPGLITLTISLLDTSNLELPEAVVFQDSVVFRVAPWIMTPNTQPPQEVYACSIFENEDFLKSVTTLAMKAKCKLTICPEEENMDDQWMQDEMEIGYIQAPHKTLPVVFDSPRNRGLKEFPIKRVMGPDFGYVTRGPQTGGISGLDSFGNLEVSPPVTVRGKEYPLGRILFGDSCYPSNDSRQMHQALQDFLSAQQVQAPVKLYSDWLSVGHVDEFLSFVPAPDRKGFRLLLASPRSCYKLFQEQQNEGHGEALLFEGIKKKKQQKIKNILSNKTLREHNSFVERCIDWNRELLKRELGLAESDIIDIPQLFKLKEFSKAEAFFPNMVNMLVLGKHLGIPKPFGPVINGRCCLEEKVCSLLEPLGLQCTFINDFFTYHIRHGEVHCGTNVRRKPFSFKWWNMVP

With `COc1cc(C(=O)N2C[C@H]3CC[C@@H]2[C@@H]3N)cc2nc(-c3cc4cccc(-c5cc[nH]n5)c4n3CC3CC3)n(C)c12` [Example 127, ((1R,4R,7R)-7-amino-2-azabicyclo[2.2.1]heptan-2-yl)(2-(1-(cyclopropylmethyl)-7-(1H-pyrazol-3-yl)-1H-indol-2-yl)-7-methoxy-1-methyl-1H-benzo[d]imidazol-5-yl)methanone], under setting [1], the IC50 is 82 nM.

In turn, `COc1cc(C(=O)N2C[C@H]3CC[C@@H]2[C@@H]3N)cc2nc(-c3cc4cccc(-c5ccc(O)cc5Cl)c4n3CC3CC3)n(C)c12` [Example 93, 4-(2-{5-[(1R,4R,7R)-7-amino-2-azabicyclo[2.2.1]heptane-2-carbonyl]-7-methoxy-1-methyl-1H-1,3-benzodiazol-2-yl}-1-(cyclopropylmethyl)-1H-indol-7-yl)-3-chlorophenol] registered an IC50 under setting [1] of 53 nM.

In the case of `COc1cc(C(=O)N2C[C@H](N)C[C@@H](F)C2)cc2nc(-c3cc4cccc(OC)c4n3CC3CC3)n(C)c12` [Example 185, ((3R,5R)-3-amino-5-fluoropiperidin-1-yl)(2-(1-(cyclopropylmethyl)-7-methoxy-1H-indol-2-yl)-7-methoxy-1-methyl-1H-benzo[d]imidazol-5-yl)methanone], the 50% inhibitory concentration (IC50) under setting [2] amounted to 133 nM.

Consider `COc1cc(C(=O)N2C[C@H]3CC[C@@H]2[C@@H]3N)cc2nc(-c3cc4cccc(-c5ccccc5CO)c4n3CC3CC3)n(C)c12` [Example 181, ((1R,4R,7R)-7-amino-2-azabicyclo[2.2.1]heptan-2-yl)(2-(1-(cyclopropylmethyl)-7-(2-(hydroxymethyl)phenyl)-1H-indol-2-yl)-7-methoxy-1-methyl-1H-benzo[d]imidazol-5-yl)methanone], for which the half-inhibitory concentration (IC50) under setting [2] was 127 nM.

Regarding `COc1cc(C(=O)N2C[C@H]3CC[C@@H]2[C@@H]3N)cc2nc(-c3cc4cccc(-c5cnc(C#N)nc5)c4n3CC3CC3(F)F)n(C)c12` (stereo partly drawn) [Example 149, 5-(2-(5-((1R,4R,7R)-7-amino-2-azabicyclo[2.2.1]heptane-2-carbonyl)-7-methoxy-1-methyl-1H-benzo[d]imidazol-2-yl)-1-((2,2-difluorocyclopropyl)meth-yl)-1H-indol-7-yl)pyrimidine-2-carbonitrile], 168 nM corresponded to half-maximal inhibition under setting [1] (IC50).

Under setting [1], `COc1cc(C(=O)N2C[C@H]3CC[C@@H]2[C@@H]3N)cc2nc(-c3cc4cccc(C5CN(C(=O)Cc6ccncc6)C5)c4n3CC3CC3)n(C)c12` [Example 73, 1-[3-(2-{5-[(1R,4R,7R)-7-amino-2-azabicyclo[2.2.1]heptane-2-carbonyl]-7-methoxy-1-methyl-1H-1,3-benzodiazol-2-yl}-1-(cyclopropylmethyl)-1H-indol-7-yl)azetidin-1-yl]-2-(pyridin-4-yl)ethan-1-one] registered an IC50 of 5 nM.

As to `COc1cc(C(=O)N2CC3CCC2[C@@H]3N)cc2nc(-c3cc4cccc(Nc5ccnc(C(N)=O)n5)c4n3CC3CC3)n(C)c12` (stereo partly drawn) [Example 160, 4-((2-(5-((7R)-7-amino-2-azabicyclo[2.2.1]heptane-2-carbonyl)-7-methoxy-1-methyl-1H-benzo[d]imidazol-2-yl)-1-(cyclopropylmethyl)-1H-indol-7-yl)amino)pyrimidine-2-carboxamide], under setting [1], the 50% inhibitory concentration (IC50) was found to be 110 nM.

Consider `COc1cc(C(=O)N2C[C@H]3CC[C@@H]2[C@@H]3N)cc2nc(-c3cc4cccc(CC5CN(C(C)=O)C5)c4n3CC3CC3)n(C)c12` [Example 63, 1-{3-[(2-{5-[(1R,4R,7R)-7-amino-2-azabicyclo[2.2.1]heptane-2-carbonyl]-7-methoxy-1-methyl-1H-1,3-benzodiazol-2-yl}-1-(cyclopropylmethyl)-H-indol-7-yl)methyl]azetidin-1-yl}ethan-1-one], for which the IC50 under setting [2] was determined as 62 nM.

`COc1cc(C(=O)N2C[C@H]3CC[C@@H]2[C@@H]3N)cc2nc(-c3cc4cccc(C5CC(C(=O)O)C5)c4n3CC3CC3)n(C)c12` (single isomer, unassigned) [Example 55] gave a half-maximal inhibitory concentration (IC50) under setting [1] of 122 nM.

The record behind these values is patent US20220402950A1, “SUBSTITUTED BENZIMIDAZOLES AS PAD4 INHIBITORS” (BRISTOL-MYERS SQUIBB COMPANY, priority 2018, published 2022).
